Experiments:
Assay in all cases: relative viability (nuclei count vs DMSO), 5 days (fraction); higher = more cells survive
[1] = compound: CC(C)C[C@@H](C(=O)N[C@H](C(=O)OC1CCCC1)c1ccccc1)[C@H](O)C(=O)NO [Tosedostat] + COc1cc2c(Oc3ccc(NC(=O)C4(C(=O)Nc5ccc(F)cc5)CC4)cc3F)ccnc2cc1OCCCN1CCOCC1 [Foretinib] (partner 0.25 µM)
In short: (§1)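 Relative viability was taken as the ratio of nuclei in treated wells to nuclei in vehicle wells. Lung cancer cell lines in 1536-well plates received compounds by pin tool one day after seeding, either one drug alone or a fixed anchor-drug dose plus five library-drug doses (not always all listed) in √10 steps. Nuclei were counted on 4× images after 5 days of treatment, and values are medians of duplicate plates.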

[2] = compound: CC(C)C[C@@H](C(=O)N[C@H](C(=O)OC1CCCC1)c1ccccc1)[C@H](O)C(=O)NO [Tosedostat] + C[C@@H](Oc1cc(-c2cnn(C3CCNCC3)c2)cnc1N)c1c(Cl)ccc(F)c1Cl [Crizotinib] (partner 1 µM)
In short: as §1

[3] = compound: CC(C)C[C@@H](C(=O)N[C@H](C(=O)OC1CCCC1)c1ccccc1)[C@H](O)C(=O)NO [Tosedostat] + C[C@]1(O)C[C@@H](c2nc(-c3ccc4ccc(-c5ccccc5)nc4c3)c3c(N)nccn32)C1 [Linsitinib] (partner 1 µM)
In short: as §1

[4] = compound: CC1=NN=C(O1)C2=NN=C(C=C2)N3CCC(CC3)OC4=C(C=CC(=C4)F)Cl + CS(=O)(=O)N1CCN(Cc2cc3nc(-c4cccc5[nH]ncc45)nc(N4CCOCC4)c3s2)CC1 [Pictilisib] (partner 1 µM)
In short: as §1

NCI-H661
relative viability ([1]; first compound 0.02 µM): 1.07 | relative viability ([1]; first compound 0.06325 µM): 0.99 | relative viability ([1]; first compound 0.2 µM): 0.98 | relative viability ([1]; first compound 0.6325 µM): 0.979 | relative viability ([1]; first compound 2 µM): 0.937 | relative viability ([2]; first compound 0.02 µM): 0.929 | relative viability ([2]; first compound 0.06325 µM): 0.93 | relative viability ([2]; first compound 0.2 µM): 1.12 | relative viability ([2]; first compound 0.6325 µM): 1.04 | relative viability ([2]; first compound 2 µM): 1.04 | relative viability ([3]; first compound 0.02 µM): 0.552 | relative viability ([3]; first compound 0.06325 µM): 0.592 | relative viability ([3]; first compound 0.2 µM): 0.555 | relative viability ([3]; first compound 0.6325 µM): 0.494 | relative viability ([3]; first compound 2 µM): 0.495 | relative viability ([4]; first compound 0.253 µM): 0.386 | relative viability ([4]; first compound 0.8 µM): 0.367 | relative viability ([4]; first compound 2.53 µM): 0.376 | relative viability ([4]; first compound 8 µM): 0.366

EKVX
relative viability ([1]; first compound 0.02 µM): 0.649 | relative viability ([1]; first compound 0.06325 µM): 0.759 | relative viability ([1]; first compound 0.2 µM): 0.795 | relative viability ([1]; first compound 0.6325 µM): 0.736 | relative viability ([1]; first compound 2 µM): 0.729 | relative viability ([2]; first compound 0.02 µM): 0.763 | relative viability ([2]; first compound 0.06325 µM): 0.842 | relative viability ([2]; first compound 0.2 µM): 0.921 | relative viability ([2]; first compound 0.6325 µM): 0.807 | relative viability ([2]; first compound 2 µM): 0.789 | relative viability ([3]; first compound 0.02 µM): 0.935 | relative viability ([3]; first compound 0.06325 µM): 1.01 | relative viability ([3]; first compound 0.2 µM): 1.03 | relative viability ([3]; first compound 0.6325 µM): 0.932 | relative viability ([3]; first compound 2 µM): 1.08 | relative viability ([4]; first compound 0.253 µM): 0.323 | relative viability ([4]; first compound 0.8 µM): 0.31 | relative viability ([4]; first compound 2.53 µM): 0.388 | relative viability ([4]; first compound 8 µM): 0.345

NCI-H358
relative viability ([1]; first compound 0.02 µM): 0.872 | relative viability ([1]; first compound 0.06325 µM): 0.634 | relative viability ([1]; first compound 0.2 µM): 0.473 | relative viability ([1]; first compound 0.6325 µM): 0.289 | relative viability ([1]; first compound 2 µM): 0.347 | relative viability ([2]; first compound 0.02 µM): 0.725 | relative viability ([2]; first compound 0.06325 µM): 0.458 | relative viability ([2]; first compound 0.2 µM): 0.355 | relative viability ([2]; first compound 0.6325 µM): 0.198 | relative viability ([2]; first compound 2 µM): 0.196 | relative viability ([3]; first compound 0.02 µM): 0.944 | relative viability ([3]; first compound 0.06325 µM): 0.788 | relative viability ([3]; first compound 0.2 µM): 0.544 | relative viability ([3]; first compound 0.6325 µM): 0.548 | relative viability ([3]; first compound 2 µM): 0.507 | relative viability ([4]; first compound 0.253 µM): 0.355 | relative viability ([4]; first compound 0.8 µM): 0.345 | relative viability ([4]; first compound 2.53 µM): 0.387 | relative viability ([4]; first compound 8 µM): 0.357

EPLC-272H
relative viability ([1]; first compound 0.02 µM): 0.658 | relative viability ([1]; first compound 0.06325 µM): 0.512 | relative viability ([1]; first compound 0.2 µM): 0.58 | relative viability ([1]; first compound 0.6325 µM): 0.355 | relative viability ([1]; first compound 2 µM): 0.185 | relative viability ([2]; first compound 0.02 µM): 0.915 | relative viability ([2]; first compound 0.06325 µM): 0.877 | relative viability ([2]; first compound 0.2 µM): 0.635 | relative viability ([2]; first compound 0.6325 µM): 0.613 | relative viability ([2]; first compound 2 µM): 0.25 | relative viability ([3]; first compound 0.02 µM): 1.06 | relative viability ([3]; first compound 0.06325 µM): 1.25 | relative viability ([3]; first compound 0.2 µM): 0.92 | relative viability ([3]; first compound 0.6325 µM): 0.855 | relative viability ([3]; first compound 2 µM): 0.712 | relative viability ([4]; first compound 0.253 µM): 0.399 | relative viability ([4]; first compound 2.53 µM): 0.41 | relative viability ([4]; first compound 8 µM): 0.309

NCI-H1666
relative viability ([1]; first compound 0.02 µM): 1.08 | relative viability ([1]; first compound 0.06325 µM): 1.01 | relative viability ([1]; first compound 0.2 µM): 0.945 | relative viability ([1]; first compound 0.6325 µM): 0.899 | relative viability ([1]; first compound 2 µM): 1.05 | relative viability ([2]; first compound 0.02 µM): 0.972 | relative viability ([2]; first compound 0.06325 µM): 1.01 | relative viability ([2]; first compound 0.2 µM): 1.01 | relative viability ([2]; first compound 0.6325 µM): 0.937 | relative viability ([2]; first compound 2 µM): 1.11 | relative viability ([3]; first compound 0.02 µM): 0.864 | relative viability ([3]; first compound 0.06325 µM): 0.815 | relative viability ([3]; first compound 0.2 µM): 0.805 | relative viability ([3]; first compound 0.6325 µM): 0.818 | relative viability ([3]; first compound 2 µM): 0.989 | relative viability ([4]; first compound 0.253 µM): 0.276 | relative viability ([4]; first compound 0.8 µM): 0.414 | relative viability ([4]; first compound 2.53 µM): 0.456 | relative viability ([4]; first compound 8 µM): 0.313

NCI-H2405
relative viability ([1]; first compound 0.02 µM): 1.03 | relative viability ([1]; first compound 0.06325 µM): 1.02 | relative viability ([1]; first compound 0.2 µM): 1.07 | relative viability ([1]; first compound 0.6325 µM): 1.02 | relative viability ([1]; first compound 2 µM): 0.932 | relative viability ([2]; first compound 0.02 µM): 0.873 | relative viability ([2]; first compound 0.06325 µM): 0.772 | relative viability ([2]; first compound 0.2 µM): 0.825 | relative viability ([2]; first compound 0.6325 µM): 0.771 | relative viability ([2]; first compound 2 µM): 0.791 | relative viability ([3]; first compound 0.02 µM): 0.883 | relative viability ([3]; first compound 0.06325 µM): 0.963 | relative viability ([3]; first compound 0.2 µM): 0.925 | relative viability ([3]; first compound 0.6325 µM): 0.965 | relative viability ([3]; first compound 2 µM): 0.862 | relative viability ([4]; first compound 0.253 µM): 0.401 | relative viability ([4]; first compound 0.8 µM): 0.523 | relative viability ([4]; first compound 2.53 µM): 0.4 | relative viability ([4]; first compound 8 µM): 0.385

NCI-H1299
relative viability ([1]; first compound 0.02 µM): 1.15 | relative viability ([1]; first compound 0.06325 µM): 1.14 | relative viability ([1]; first compound 0.2 µM): 1.14 | relative viability ([1]; first compound 0.6325 µM): 1.04 | relative viability ([1]; first compound 2 µM): 0.966 | relative viability ([2]; first compound 0.02 µM): 1.05 | relative viability ([2]; first compound 0.06325 µM): 0.919 | relative viability ([2]; first compound 0.2 µM): 0.933 | relative viability ([2]; first compound 0.6325 µM): 0.926 | relative viability ([2]; first compound 2 µM): 0.873 | relative viability ([3]; first compound 0.02 µM): 1.13 | relative viability ([3]; first compound 0.06325 µM): 0.878 | relative viability ([3]; first compound 0.2 µM): 0.984 | relative viability ([3]; first compound 0.6325 µM): 0.878 | relative viability ([3]; first compound 2 µM): 0.839 | relative viability ([4]; first compound 0.253 µM): 0.698 | relative viability ([4]; first compound 0.8 µM): 0.611 | relative viability ([4]; first compound 2.53 µM): 0.71 | relative viability ([4]; first compound 8 µM): 0.713

NCI-H2126
relative viability ([1]; first compound 0.02 µM): 1.12 | relative viability ([1]; first compound 0.06325 µM): 1.27 | relative viability ([1]; first compound 0.2 µM): 1.25 | relative viability ([1]; first compound 0.6325 µM): 1.07 | relative viability ([1]; first compound 2 µM): 1.12 | relative viability ([2]; first compound 0.02 µM): 0.974 | relative viability ([2]; first compound 0.06325 µM): 1.02 | relative viability ([2]; first compound 0.2 µM): 1.02 | relative viability ([2]; first compound 0.6325 µM): 0.954 | relative viability ([2]; first compound 2 µM): 0.935 | relative viability ([3]; first compound 0.02 µM): 0.586 | relative viability ([3]; first compound 0.06325 µM): 0.682 | relative viability ([3]; first compound 0.2 µM): 0.778 | relative viability ([3]; first compound 0.6325 µM): 0.677 | relative viability ([3]; first compound 2 µM): 0.623 | relative viability ([4]; first compound 0.253 µM): 0.433 | relative viability ([4]; first compound 0.8 µM): 0.478 | relative viability ([4]; first compound 2.53 µM): 0.441 | relative viability ([4]; first compound 8 µM): 0.412

Source: the supplement of paper PMC10307832
